Experimental data as given in US8999970B2, “Administration of an anti-obesity compound to individuals with renal impairment” (Arena Pharmaceuticals, Inc., priority 2010, dated 2015).
Several values for one entry are separate records, joined by “and”; a condition that tells them apart may be missing. Identical values can stand only once. Entries after “also recorded” stand apart in the source; their conditions may differ.

Assays:
[1] = Preclinical toxicology: lorcaserin, M1 and M5 pharmacokinetics after oral administration of lorcaserin, 52 wk, monkeys; details: for AUC0-inf / AUClast / Cmax / tmax: Monkeys, 52 wk
Description: Lorcaserin doses of 0, 2, 10, 50, and 125 mg/kg in a 5 mL/kg dose volume were administered by nasogastric intubation once daily for 12 months to cynomolgus monkeys (4 to 6/sex/group). Two animals/sex from the control, 50 and 125 mg/kg groups were continued on study without further dosing for an additional 4 weeks prior to termination. For the first 91 days of the study, dose solutions were prepared using anhydrous lorcaserin. Starting on Day 92 and continuing for the remainder of the study, dose solutions were prepared using lorcaserin hemihydrate to match the intended commercial form. […] Evaluations included clinical signs, food consumption, BW, electrocardiograms, ophthalmic exams, and clinical pathology indices. Blood samples were collected for TK analysis on Day 1, Week 4, Day 91, Day 92, and Week 52. A full necropsy was conducted on all animals, and tissues were collected, preserved, processed, and examined microscopically. Additional sections of heart were collected to allow comprehensive evaluation of all heart valves. Heart histopathologic evaluation included atria, ventricles, interventricular septum, both AV valves (mitral and tricuspid), and the aortic and pulmonic valves.

[2] = Clinical trial APD356-016: plasma and urine pharmacokinetics of lorcaserin, M1 and M5 after a 10 mg dose in subjects with renal impairment; details: for Ae0-120 / fe0-120: urine; for AUC24 hr / Cmax / t1/2: 10 mg QD Authentic, Day 1
Description: The interaction of renal insufficiency with the pharmacokinetics, tolerability and safety of lorcaserin were evaluated in a formal PK study in subjects with renal impairment and in the populations studied in phase 2 and phase 3 clinical studies.
The pharmacokinetic properties of lorcaserin in subjects with varying degrees of renal impairment were evaluated in clinical trial APD356-016. At the time of study conduct and analysis, subjects were assigned to renal impairment groups based on creatinine clearance calculated using IDEAL body weight (Table 1). This calculation was used to avoid overestimation of creatinine clearance due to the excess body weight (overweight and obese subjects were enrolled in the trial). Summaries of pharmacokinetic properties by group assignment using creatinine clearance calculated using ACTUAL body weights are also provided in the sections that follow.
The FDA expects a reasonable margin between anticipated exposures and exposures that may produce toxicity. A reasonable margin can vary depending on the expected toxicity, but generally is an order of magnitude (10 times), but can sometimes be less for mild toxicity.
Table 13. Summary of Plasma Concentrations (ng/mL) of HSO3-APD356 Metabolite over Time by Group: Severe Renal Impairment Not Receiving Dialysis (see Table 13 next page)
Subject number 3140-505 was on dialysis and grouped in the end stage renal disease group.

[3] = lorcaserin 10 mg/kg/day oral, F
[4] = lorcaserin 10 mg/kg/day oral, M
[5] = lorcaserin 50 mg/kg/day oral, F
[6] = lorcaserin 50 mg/kg/day oral, M
[7] = lorcaserin 125 mg/kg/day oral, F
[8] = lorcaserin 125 mg/kg/day oral, M
[9] = 10 mg dose, Mild, actual BW groups
[10] = 10 mg dose, Mild, ideal BW groups
[11] = 10 mg dose, Moderate, actual BW groups
[12] = 10 mg dose, Moderate, ideal BW groups
[13] = 10 mg dose, Normal, actual BW groups
[14] = 10 mg dose, Normal, ideal BW groups
[15] = 10 mg dose, Severe N = 1, actual BW groups
[16] = 10 mg dose, Severe, ideal BW groups

Compound: C[C@H]1CN(S(=O)(=O)O)CCc2ccc(Cl)cc21 [Compound M1, lorcaserin sulfamate]
- AUC0-inf ([1]; lorcaserin 2 mg/kg/day oral, F): 41 µg·h/mL and 40.9 ± 1.6 µg·h/mL
- AUClast ([1]; lorcaserin 2 mg/kg/day oral, F): 39.3 ± 1.8 µg·h/mL
- Cmax ([1]; lorcaserin 2 mg/kg/day oral, F): 4580 ng/mL
- tmax ([1]; lorcaserin 2 mg/kg/day oral, F): 1.5 ± 0.6 h
- AUC0-inf ([1]; lorcaserin 2 mg/kg/day oral, M): 62 µg·h/mL and 61.6 ± 15.4 µg·h/mL
- AUClast ([1]; lorcaserin 2 mg/kg/day oral, M): 56.4 ± 14.3 µg·h/mL
- Cmax ([1]; lorcaserin 2 mg/kg/day oral, M): 5010 ng/mL
- tmax ([1]; lorcaserin 2 mg/kg/day oral, M): 3.0 ± 1.2 h
- AUC0-inf [1, 3]: 307 ± 66 µg·h/mL
- AUClast [1, 3]: 269 ± 40 µg·h/mL
- Cmax [1, 3]: 27500 ± 6600 ng/mL
- tmax [1, 3]: 2.5 ± 1.0 h
- AUC0-inf [1, 4]: 312 ± 79 µg·h/mL
- AUClast [1, 4]: 276 ± 74 µg·h/mL
- Cmax [1, 4]: 22000 ± 7600 ng/mL
- tmax [1, 4]: 3.3 ± 1.5 h
- AUC0-inf [1, 5]: 877 ± 221 µg·h/mL
- AUClast [1, 5]: 771 ± 182 µg·h/mL
- Cmax [1, 5]: 56300 ± 13400 ng/mL
- tmax [1, 5]: 5.2 ± 2.4 h
- AUC0-inf [1, 6]: 1060 ± 313 µg·h/mL
- AUClast [1, 6]: 904 ± 228 µg·h/mL
- Cmax [1, 6]: 62300 ± 14100 ng/mL
- tmax [1, 6]: 4.7 ± 1.6 h
- AUC0-inf [1, 7]: 1910 ± 865 µg·h/mL
- AUClast [1, 7]: 1580 ± 501 µg·h/mL
- Cmax [1, 7]: 115000 ± 24000 ng/mL
- tmax [1, 7]: 3.5 ± 2.5 h
- AUC0-inf [1, 8]: 2020 ± 856 µg·h/mL
- AUClast [1, 8]: 1460 ± 269 µg·h/mL
- Cmax [1, 8]: 106000 ± 31000 ng/mL
- tmax [1, 8]: 3.7 ± 2.3 h
- AUC0-inf in monkeys relative to predicted daily exposure in severe renal impairment ([1]; monkeys 2 mg/kg/day (NOAEL), human 10 mg BID): 1.6-2.4 times
- Cmax in monkeys relative to predicted Cmax in severe renal impairment ([1]; monkeys 2 mg/kg/day (NOAEL), human 10 mg BID steady state): approximately 5 times
- Cmax margin, monkeys vs predicted exposure in severe renal impairment ([1]; monkeys 10 mg/kg/day): 20-25 times
- AUC0-inf exposure margin, monkeys vs predicted daily exposure in severe renal impairment ([1]; monkeys 10 mg/kg/day, human 10 mg BID): about 12 fold
- Dose proportionality of plasma exposure ([1]; monkeys, Day 1, 2 to 125 mg/kg, both sexes): less than dose proportional
- % AUC0-inf Extrapolated [2, 9]: 4.54%
- ClNR/F [2, 9]: 16.7 L/h
- T1/2z [2, 9]: 14.6 h
- % AUC0-inf Extrapolated [2, 10]: 3.36%
- ClNR/F [2, 10]: 12.8 L/h
- T1/2z [2, 10]: 13.0 h
- % AUC0-inf Extrapolated [2, 11]: 3.74%
- ClNR/F [2, 11]: 18.2 L/h
- T1/2z [2, 11]: 14.9 h
- % AUC0-inf Extrapolated [2, 12]: 4.92%
- ClNR/F [2, 12]: 17.0 L/h
- T1/2z [2, 12]: 15.9 h
- % AUC0-inf Extrapolated [2, 13]: 3.57%
- ClNR/F [2, 13]: 15.1 L/h
- T1/2z [2, 13]: 12.1 h
- % AUC0-inf Extrapolated [2, 14]: 3.81%
- ClNR/F [2, 14]: 17.1 L/h
- T1/2z [2, 14]: 11.0 h
- % AUC0-inf Extrapolated [2, 15]: 3.70%
- ClNR/F [2, 15]: 17.2 L/h
- T1/2z [2, 15]: 18.8 h
- % AUC0-inf Extrapolated [2, 16]: 3.59%
- AUC0-inf [2, 16]: 23.6 µg·h/mL
- ClNR/F [2, 16]: 19.0 L/h
- T1/2z [2, 16]: 15.0 h
- Ae0-120 [2, 9]: 297 µg
- fe0-120 [2, 9]: 0.0352
- Ae0-120 [2, 10]: 326 µg
- fe0-120 [2, 10]: 0.0386
- Ae0-120 [2, 11]: 304 µg
- fe0-120 [2, 11]: 0.0360
- Ae0-120 [2, 12]: 327 µg
- fe0-120 [2, 12]: 0.0387
- Ae0-120 [2, 13]: 257 µg
- fe0-120 [2, 13]: 0.0304
- Ae0-120 [2, 14]: 185 µg
- fe0-120 [2, 14]: 0.0220
- Ae0-120 [2, 15]: 204 µg
- fe0-120 [2, 15]: 0.0242
- Ae0-120 [2, 16]: 280 µg
- fe0-120 [2, 16]: 0.0332
- Removal by hemodialysis ([2]; ESRD): not removed; also recorded: not cleared
- AUC24 hr ([2]; ESRD): 3.65 µg·h/mL
- Cmax ([2]; ESRD): 67.6 ng/mL
- AUC24 hr ([2]; Mild): 1.94 µg·h/mL
- Cmax ([2]; Mild): 43.5 ng/mL
- t1/2 ([2]; Mild): 45.5 h
- AUC24 hr ([2]; Moderate): 2.24 µg·h/mL
- Cmax ([2]; Moderate): 34.1 ng/mL
- t1/2 ([2]; Moderate): 70.8 h
- AUC24 hr ([2]; Normal): 1.27 µg·h/mL
- Cmax ([2]; Normal): 33.6 ng/mL
- t1/2 ([2]; Normal): 36.2 h
- AUC24 hr ([2]; Severe): 7.85 µg·h/mL
- Cmax ([2]; Severe): 103 ng/mL
- t1/2 ([2]; Severe): 220 h
- Exposure (Geometric Mean Ratio for AUCinf) increase compared to normal subjects ([2]; mild (CLcr=51-80 mL/min)): 1.6 fold
- Terminal half-life prolonged by ([2]; mild renal impairment): 26%
- Exposure (Geometric Mean Ratio for AUCinf) increase compared to normal subjects ([2]; moderate (CLcr=31-50 mL/min)): 2.3 fold
- Terminal half-life prolonged by ([2]; moderate renal impairment): 96%
- Exposure (Geometric Mean Ratio for AUCinf) increase compared to normal subjects ([2]; severe (CLcr=5-30 mL/min)): 16.7 fold
- Maximum individual Cmax relative to the mean Cmax ([2]; severe renal impairment): more than five times
- Terminal half-life prolonged by ([2]; severe renal impairment): 508%
- AUC0-inf of subject 3285-009 ([2]; severe renal impairment (ideal BW)): 101 µg·h/mL
- Mean plasma concentration ([2]; severe renal impairment, eight individuals, day 1, 4 hours): 99.5 ng/mL
- Plasma concentration (Cmax) of subject 3285-009 ([2]; severe renal impairment, day 1, 4 hours): 542 ng/mL
